Experimental findings from patent US20140135359A1, “METHODS OF DESIGNING, PREPARING, AND USING NOVEL PROTONOPHORES” (priority 2012, published 2014) are described below.

Test [1] concerns isolated rat liver mitochondria. The test can be described thus: Uncoupling activity: increase in basal (state 4) oxygen consumption by oxygraphy. Type of test: biochemical. Particulars: for Measured Uncoupling Activity (% uncoupling ± SEM @ 100 μM): Suppl. Table 1, 2-3 mitochondrial preparations; for Uncoupling (%): increase in basal (state 4) oxygen consumption as % of average ADP-stimulated (state 3) rate in vehicle-treated mitochondria.

Test [2] shares this test system. The test can be described thus: Residual functional capacity / inhibitory effect on ADP-stimulated (state 3) oxygen consumption. Type of test: biochemical. Particulars: for inhibition of ADP-stimulated oxygen consumption: screening at 100 μM; for Residual capacity (%): functional capacity (state 3 minus state 4 rate) as % of vehicle-treated mitochondria.
For test [3], the system named is glucose-6-phosphatase (G6Pase) activity in H4IIE hepatocytes. The test can be described thus: Glucose-6-phosphatase activity in H4IIE hepatocytes. Particulars: 16 h; for increase in G6Pase activity: 1 μM. Type of test: cell-based, murine. The protocol: 2.4 Glucose-6-phosphatase activity in H4IIE hepatocytes: H4IIE murine hepatocytes (American Type Culture Collection) were cultured to confluence in 12-well plates in DMEM supplemented with 10% FBS and antibiotics. […] Effects of test compounds on cellular viability were assessed by measuring the release of lactate dehydrogenase (LDH) into the culture medium at the end of a 16 h treatment using a commercial kit (Cytotoxicity Detection Kit; Roche Diagnostics; Laval, QC) as per the manufacturer's instructions; LDH release was expressed as % of total (medium+lysate) LDH content for each well. Cells were also routinely inspected for abnormal morphology by phase-contrast microscopy at the conclusion of the treatment period. Following treatment, cells were washed in HEPES-buffered saline (10 mM HEPES, pH 7.4, 150 mM NaCl) at 37° C. Glucose-6-phosphatase (G6Pase) activity was assessed by measuring the rate of glucose formation in the presence of a non-limiting amount of glucose-6-phosphate (G6P), as done by others [39B, 40B]. Glucose production was measured with a commercial glucose assay kit (AutoKit Glucose; Wako Diagnostics; Richmond, Va.). Two hundred μl of AutoKit Glucose buffer solution diluted 1:4 in water were added to each well. Cells were then lysed by the addition of 50 μl of 0.05% Triton X-100 in similarly diluted AutoKit Glucose buffer solution. […] At 37° C., after which time 500 μl of AutoKit Glucose color reagent were added and incubation was continued for exactly 5 min. Samples were then rapidly transferred to microcentrifuge tubes. Fifty μl were removed for assay of total protein content in order to account for effects of test compounds on cellular viability or proliferation [41B]. A commercial protein assay kit based on the Bradford method was used (Protein Assay; Bio-Rad Laboratories; Hercules, Calif.). […] The remaining volume was centrifuged at 3000×g for 5 min. Absorbance of the supernatant was measured at 505 nm at ambient temperature and glucose concentration was calculated from a standard curve performed in parallel. Control wells without exogenous G6P were included on each plate for each treatment condition and activity measured from these wells was subtracted from activity measured in the presence of exogenous G6P. G6Pase activity calculated in this way was then expressed normalized to protein content on a well-by-well basis. Two independent experiments in cells of different passages were performed for each of the selected test compounds, with four to six replicates per condition per experiment.
Protocol for assay of glucose-6-phosphatase activity in H4IIE or other hepatocytes: H4IIE murine hepatocytes (American Type Culture Collection) may be cultured to confluence in 12-well plates in Dulbecco's modified Eagle's medium (DMEM) supplemented with 10% fetal bovine serum (FBS), and antibiotics. […] Effects of test compounds on cellular viability may be assessed by measuring the release of lactate dehydrogenase (LDH) into the culture medium at the end of a 16 hour treatment using a commercial kit (e.g., Cytotoxicity Detection Kit; Roche Diagnostics; Laval, QC) as per the manufacturer's instructions; LDH release may be expressed as % of total (i.e., medium+lysate) LDH content for each well. Cells may also be routinely inspected for abnormal morphology by phase-contrast microscopy at the conclusion of the treatment period. Following treatment, cells may be washed in HEPES-buffered saline (10 mM HEPES, pH 7.4, 150 mM NaCl) at 37° C. Glucose-6-phosphatase (G6Pase) activity may be assessed by measuring the rate of glucose formation in the presence of a non-limiting amount of glucose-6-phosphate (G6P). Glucose production may be measured with a commercial glucose assay kit (e.g., AutoKit Glucose; Wako Diagnostics; Richmond, Va.). Two hundred μl of AutoKit Glucose buffer solution diluted 1:4 in water may be added to each well.

For test [4], the system named is differentiated C2C12 skeletal muscle cells. The test can be described thus: 3H-deoxyglucose uptake in C2C12 myotubes. Type of test: cell-based, murine. Conditions: 100 μM, 18 h. The procedure: 2.3 ^3H-deoxyglucose uptake in C2C12 myotubes: Cell culture and the ^3H-deoxyglucose uptake assay were performed as previously described [34B, 35B, 37B]. Briefly, C2C12 murine skeletal myoblasts (American Type Culture Collection; Manassas, Va.) were cultured under standard conditions in 12-well plates. Cells were proliferated to 80% confluence in high-glucose Dulbecco's modified Eagle's medium (DMEM; Wisent; St-Bruno, QC) supplemented with 10% fetal bovine serum (FBS; Wisent), 10% horse serum (HS), and antibiotics. Differentiation into multinucleated myotubes was then promoted with DMEM supplemented with 2% HS and antibiotics. All uptake assays were performed on 7-day differentiated cells, and treatments were timed accordingly. […] DMSO concentration was fixed at 0.1% for all conditions. Cells were routinely inspected for abnormal morphology by phase-contrast microscopy at the conclusion of the treatment period. […] Cells were then washed twice in glucose-free KPB at 37° C. before incubation for exactly 10 min at 37° C. in glucose-free KPB containing 0.5 μCi/ml 2-deoxy-D-[1-^3H]glucose (Amersham Biosciences; Buckinghamshire, UK). Cells were then placed on ice and immediately washed three times with ice-cold KPB. Cells were inspected for monolayer detachment and lysed in 0.1 N NaOH with scraping. […] Three independent experiments of 18 h treatment duration were performed for each of the selected test compounds, with three replicates per condition per experiment. Vehicle-control and 50 μM 2,4-dinitrophenol conditions were included on every plate. Some compounds were also tested at 50 μM under the following conditions: a 15 h treatment with vehicle only followed by a 3 h treatment with the test compound; a 15 h treatment with the test compound followed by a 3 h repeat treatment.
Protocol for ^3H-deoxyglucose uptake assay in C2C12 or other skeletal muscle cells; C2C12 murine skeletal myoblasts (American Type Culture Collection; Manassas, Va.) may be cultured under standard conditions in 12-well plates. Cells may be proliferated to 80% confluence in high-glucose Dulbecco's modified Eagle's medium (DMEM) supplemented with 10% fetal bovine serum (FBS), 10% horse serum (HS), and antibiotics. Differentiation into multinucleated myotubes may be then promoted with DMEM supplemented with 2% HS and antibiotics. All uptake assays may be performed on 7-day differentiated cells, and treatment onset may be timed accordingly. Cells may be treated with reference substances (such as metformin (100 or 400 μM), phenformin (100 μM), or 2,4-dinitrophenol 10-100 μM), compounds described herein, or vehicle (DMSO) in complete differentiation medium. DMSO concentration may be fixed at 0.1% for all conditions. Cells may be routinely inspected for abnormal morphology by phase-contrast microscopy at the conclusion of the treatment period. […] Cells may be then washed twice in glucose-free KPB at 37° C. before incubation for exactly 10 min at 37° C. in glucose-free KPB containing 0.5 μCi/ml 2-deoxy-D-[1-3H]glucose (Amersham Biosciences; Buckinghamshire, UK). Cells may be then placed on ice and immediately washed three times with ice-cold KPB. Cells may be inspected for monolayer detachment and lysed in 0.1 N NaOH with scraping. […] Three or more independent experiments of 18 hours treatment duration may be performed for each test compound, with three or more replicates per condition per experiment. Vehicle-control and 2,4-dinitrophenol conditions may be included on every plate for the purpose of standardizing.

Regarding `O=C(/C=C/c1ccccc1)c1ccccc1` [chalcone], the uncoupling activity entry in test [1] (50 μM in 0.1% DMSO (FIG. 19)) is “devoid of uncoupling activity”. Further, in test [1] (100 μM, result in words), the uncoupling activity result was “inactive”. Besides, the “Measured Uncoupling Activity (% uncoupling ± SEM @ 100 μM)” value in test [1] (100 μM) is listed as −6 ± 0 % uncoupling. Also, the “Uncoupling (%)” value in test [1] (test conc. 100 μM) is listed as −6 ± 0%. Also, in test [2] (50 μM (FIG. 19)), the “inhibitory effect on oxidative phosphorylation” value was “small inhibitory effect”. Besides, the “inhibition of ADP-stimulated oxygen consumption” value (“inhibition” below) in test [2] is “inhibitory activity”. Further, in test [2] (test conc. 100 μM), the “Inhibitory effect (%)” value was 65% and the “Residual capacity (%)” value was 35 ± 5%. Also, the “suppression of G6Pase activity” value in test [3] (12.5 μM, result in words) is “did not suppress G6Pase activity”.

Take `C[C@@H]1C[C@H]2[C@@H]3CCC4=CC(=O)C=C[C@]4(C)[C@@]3(F)[C@@H](O)C[C@]2(C)[C@@]1(O)C(=O)CO` [dexamethasone]: the “increase in G6Pase activity” value worked out at 56% in test [3] and 56±10% in test [3] (listed as Dexamethasone).

Consider `[H]/N=C(/N)N/C(=N/[H])NCCc1ccccc1` [phenformin], for which the “increase in basal glucose uptake” value in test [4] was 48%.

In the case of `O=c1c(O)c(-c2ccc(O)c(O)c2)oc2cc(O)cc(O)c12` [quercetin], in test [1] (100 μM), the “Measured Uncoupling Activity (% uncoupling ± SEM @ 100 μM)” value amounted to 8 ± 1 % uncoupling. The “Uncoupling (%)” value was 4 ± 0% in test [1] (test conc. 25 μM) and 8 ± 1% in test [1] (test conc. 100 μM). Also, the “inhibition” value in test [2] is on record as “inhibitory activity”. In addition, the “Inhibitory effect (%)” value worked out at 36% in test [2] (test conc. 25 μM) and 80% in test [2] (test conc. 100 μM). Moreover, the “Residual capacity (%)” value is 60 ± 10% in test [2] (test conc. 25 μM) and 12 ± 5% in test [2] (test conc. 100 μM).

Regarding `Oc1cccc(O)c1` [resorcinol], the “Measured Uncoupling Activity (% uncoupling ± SEM @ 100 μM)” value in test [1] (100 μM) is listed as 0 ± 0 % uncoupling. Moreover, in test [1] (test conc. 100 μM), the “Uncoupling (%)” value is listed as 0 ± 0%. In test [2] (test conc. 100 μM), the “Inhibitory effect (%)” value was 9% and the “Residual capacity (%)” value is listed as 91 ± 3%.

Regarding `Oc1ccc(C=Cc2cc(O)cc(O)c2)cc1` [resveratrol (trans)], the “Uncoupling (%)” value worked out at 0 ± 0% in test [1] (test conc. 25 μM) and 2 ± 0% in test [1] (test conc. 100 μM). Moreover, the figures for the “Inhibitory effect (%)” value in test [2] (test conc. 25 μM) and in test [2] (test conc. 100 μM) were 29% and 62%, respectively. For the same molecule, the “Residual capacity (%)” value in test [2] (test conc. 25 μM) worked out at 71 ± 9%; in test [2] (test conc. 100 μM), 36 ± 4%.

Take `O=C(O)c1ccccc1O` [salicylic acid]: the “Measured Uncoupling Activity (% uncoupling ± SEM @ 100 μM)” value in test [1] (100 μM) was determined as 4 ± 0 % uncoupling. In addition, the “Uncoupling (%)” value in test [1] (test conc. 100 μM) is 4 ± 0%. In test [2] (test conc. 100 μM), the “Inhibitory effect (%)” value came out at 6% and the “Residual capacity (%)” value came out at 90 ± 2%.

Regarding `COc1ccc(-c2cc(=O)c3c(O)cc(O)c(-c4cc(-c5cc(=O)c6c(O)cc(OC)cc6o5)ccc4OC)c3o2)cc1` [sciadopitysin], the “Measured Uncoupling Activity (% uncoupling ± SEM @ 100 μM)” value in test [1] (100 μM) is −1 ± 0 % uncoupling. In addition, the “Uncoupling (%)” value in test [1] (test conc. 100 μM) is listed as −1 ± 0%. Moreover, in test [2] (test conc. 100 μM), the “Inhibitory effect (%)” value is listed as 2% and the “Residual capacity (%)” value was found to be 98 ± 0%.

For `COc1cc(C2Oc3cc([C@H]4Oc5cc(O)cc(O)c5C(=O)[C@@H]4O)ccc3OC2CO)ccc1O` (some centres unmarked) [silibinin (A and B), silibinin], the “Measured Uncoupling Activity (% uncoupling ± SEM @ 100 μM)” value in test [1] (100 μM) was 5 ± 1 % uncoupling. Further, the “Uncoupling (%)” value in test [1] (test conc. 100 μM) was determined as 5 ± 1%. The “inhibition” value in test [2] is given as “inhibitory activity”. Moreover, in test [2] (test conc. 100 μM), the “Inhibitory effect (%)” value worked out at 73% and the “Residual capacity (%)” value came out at 22 ± 5%.

`C(=Cc1ccccc1)c1ccccc1` [stilbene (trans)]: the “Uncoupling (%)” value in test [1] (test conc. 100 μM) is recorded as −1 ± 1%. Besides, in test [2] (test conc. 100 μM), the “Inhibitory effect (%)” value was found to be 1% and the “Residual capacity (%)” value is 99 ± 3%.

As to `Cc1ccc(C(C)C)c(O)c1` [thymol], in test [1] (100 μM), the “Measured Uncoupling Activity (% uncoupling ± SEM @ 100 μM)” value was 6 ± 0 % uncoupling. For the same molecule, in test [1] (test conc. 100 μM), the “Uncoupling (%)” value is given as 6 ± 0%. Moreover, in test [2] (test conc. 100 μM), the “Inhibitory effect (%)” value is given as 29% and the “Residual capacity (%)” value is recorded as 65 ± 5%.

As for `Oc1cc(O)cc(/C=C/c2ccccc2)c1` [trans-pinosylvin, pinosylvin], the “Measured Uncoupling Activity (% uncoupling ± SEM @ 100 μM)” value in test [1] (100 μM) came to 3 ± 3 % uncoupling. The figures for the “Uncoupling (%)” value in test [1] (test conc. 25 μM) and in test [1] (test conc. 100 μM) were 0 ± 1% and 3 ± 3%, respectively. Moreover, the “Inhibitory effect (%)” value in test [2] (test conc. 25 μM) worked out at 20%; in test [2] (test conc. 100 μM), 34%. The results for the “Residual capacity (%)” value in test [2] (test conc. 25 μM) and in test [2] (test conc. 100 μM) were 80 ± 13% and 63 ± 4%, respectively.

For `COc1cc(C=O)ccc1O` [vanillin], the “Measured Uncoupling Activity (% uncoupling ± SEM @ 100 μM)” value in test [1] (100 μM) stood at 0 ± 1 % uncoupling. Moreover, the “Uncoupling (%)” value in test [1] (test conc. 100 μM) came to 0 ± 1%. In test [2] (test conc. 100 μM), the “Inhibitory effect (%)” value is given as 26% and the “Residual capacity (%)” value was found to be 74 ± 16%.

For “epigallocatechin gallate [(−) epigallocatechin gallate]”, the “Measured Uncoupling Activity (% uncoupling ± SEM @ 100 μM)” value in test [1] (100 μM) came out at 0 ± 1 % uncoupling. Further, the “Uncoupling (%)” value in test [1] (test conc. 100 μM) is 0 ± 1%. Further, in test [2] (test conc. 100 μM), the “Inhibitory effect (%)” value was found to be 2% and the “Residual capacity (%)” value came out at 98 ± 2%.
